Test results taken from patent US8629283B2, “Compounds that modulate negative-sense, single-stranded RNA virus replication and uses thereof” (Icahn School of Medicine at Mount Sinai, priority 2008, dated 2014).
“Also recorded” adds a separate entry of the source.

Tested on: influenza virus
Assay type: cell-based

With `N#Cc1cc2c(OCC(O)CN3CCN(C(c4ccccc4)c4ccccc4)CC3)cccc2[nH]1` (centres unmarked) [SDZ-201106] the “susceptibility of passaged versus unpassaged virus (resistance)” value was “No difference; also recorded: emergence of resistant viruses was not observed”.
With `CC(=O)c1c(O)c(C)c(O)c(Cc2c(O)c3c(c(C(=O)/C=C/c4ccccc4)c2O)OC(C)(C)C=C3)c1O` [rottlerin] the “susceptibility of passaged versus unpassaged virus (resistance)” value was “No difference; also recorded: emergence of resistant viruses was not observed”.
